Data on 17 compounds can be found in US11311512B2, “Lymph directing prodrugs” (priority 2014, dated 2022).

The procedure of data set [1]:
Lipid formulations containing the compound of interest were then administered to the animals, the lymph collected and drug concentrations in the lymph subsequently quantified.
Lipid-based formulations of the compounds of the invention or control compounds were prepared as previously described (Trevaskis, N. L. et al., Pharmaceutical Research, 2005, 22(11), 1863-1870). Briefly, approximately 2 mg of the compound (1 mg in the case of Compound 35 and Compound 1), 40 mg oleic acid and 25 mg Tween 80 were mixed in a glass vial until equilibrated (gentle heat (below 50° C.) may be applied for a short period).
[…] This was to eliminate the potential for the relatively high and variable levels of endogenous testosterone in male rats interfering with the quantification of exogenously dosed testosterone. Rats (240-320 g) were maintained on a standard diet and fasted overnight with free access to water prior to experiments. Anaesthetised rats were placed on a heated pad at 37° C. and cannulas were inserted into the duodenum (for formulation administration and rehydration), mesenteric lymph duct (for lymph collection) and carotid artery (for blood collection) as previously described (Edwards et al. Advanced Drug Delivery Reviews 2001, 50(1), 45-60). Post-surgery, rats were re-hydrated for 0.5 h via intraduodenal infusion of normal saline at 2.8 mL/h. The lipid formulations were infused into the duodenum at 2.8 mL/h for 2 h, after which the infusion was changed to 2.8 mL/h normal saline for the remainder of the experiment. Lymph was continuously collected for 6 to 8 h into pre-weighed Eppendorf tubes containing 10 μL of 1,000 IU/mL heparin. The collection tubes were changed hourly and lymph flow was measured gravimetrically. Aliquots of hourly lymph samples were stored at −80° C. prior to assay.
Drug concentration in lymph is expressed as total drug and includes free drug and drug associated with different glycerides. This is assayed by hydrolysis of lymph (to liberate drug from any re-esterified glycerides) prior to assessment of free drug.
FIG. 1 illustrates the cumulative lymphatic transport of total testosterone related derivatives (% of administered dose) versus time in anaesthetised mesenteric lymph duct cannulated female SD rats following intraduodenal infusion of formulations from 0 to 2 h. Each Formulation contained 2 mg of the exemplified compound or the control, testosterone undecanoate (TU), dispersed in 40 mg oleic acid, 25 mg Tween 80 and 5.6 ml PBS.

The nature of data set [2]: Pharmacokinetic study in rats, testosterone plasma concentrations after oral gavage. The conditions noted are these: testosterone in plasma, oral gavage; for Tmax / AUC0-24 h / Cmax: conscious carotid artery cannulated SD female rats; for AUC0-24 h / Cmax: normalized to 2 mg/kg equivalent testosterone dose. The method, then: In order to assess the oral bioavailability of the compounds of the invention, pharmacokinetic studies were conducted in rats and dogs. […] The rats were then allowed to regain consciousness and fasted overnight prior to the commencement of experiments with free access to water. […] The oral formulation of Compound 2 contained 3 mg of the compound, 20 mg oleic acid and 12.5 mg Tween 80 dispersed in 1 mL PBS. Blood samples were collected from the carotid artery cannula from 5 min prior to administration up to 24 h post-dosing and centrifuged at 5000 rpm for 5 min to separate plasma. […] Plasma samples were stored at −80° C. prior to assay by HPLC-MS-MS. In this case samples were assayed for free drug (i.e. non-glyceride associated drug) and were not hydrolysed prior to assay (as was the case with the lymph samples).
FIG. 12 illustrates dose-normalized testosterone plasma concentrations following oral gavage of formulations to conscious, carotid artery cannulated female SD rats. Formulations contained 1 mg of TU, or 2 mg of compounds of the invention containing testosterone dispersed in 40 mg oleic acid, 25 mg Tween 80 and 2 ml PBS. Doses are normalized to a 2 mg/kg equivalent dose of testosterone. Data are shown as mean±SEM for all groups (n=4 or 3 for each group). The embedded figure is the plot of the dose-normalized plasma AUC0-24h (nmol×h/L) of testosterone in the form of a bar graph.

Where [3] appears, read: anaesthetised, mesenteric lymph-duct cannulated male SD rats, intraduodenal infusion, MET, ATV, ASP, SER or CEL derivatives.
Setting [4] is: anaesthetised, mesenteric lymph-duct cannulated male SD rats, intraduodenal infusion 0-2 h, cumulative over 8 h.
Setting [5] is: lymphatic transport of total MPA derivatives, male SD rats, intraduodenal infusion.
Setting [6] is: male, Sprague-Dawley, rat, in vivo.

The term Tmax denotes the time at which the peak concentration occurs. One may read the Cmax as the peak of the concentration-time curve.

Where “and” joins values, the source holds several entries; their conditions need not be identical. Equal values may be shown once. Read-outs that look alike come from different tables or passages of the source.

Turning to “1-(1,3-Bis(palmitoyloxy)propan-2-yl) 10-(1-(isopropylamino)-3-(4-(2-methoxyethyl)phen-oxy)propan-2-yl) decanedioate [Compound 3]”, the “Transport of total drug derivatives in lymph (% of dose)” value in data set [1] (setting [3]) is 14.2 ± 1.5 % of dose. In addition, the “Increase fold (compared with parent drug group)” value (shortened to “Increase fold”) in data set [1] (lymphatic transport of total drug derivatives, male SD rats, intraduodenal infusion) was determined as 591.7 fold.
Turning to `CCCCCCCCCCCCCCCC(=O)OCC(COC(=O)CCCCCCCCCCCCCCC)OC(=O)C(C)CCCOC(=O)CCC(C)=CCc1c(O)c2c(c(C)c1OC)COC2=O` (mixture of isomers) [Compound 36], the “Transport of total MPA derivatives in lymph (% of dose)” value in data set [1] (setting [4]) is 9.1 % of dose and 9.1 ± 1.4 % of dose. Further, the “Fold increase (compared with MPA dosed group)” value in data set [1] (setting [5]) turned out to be 54.6 fold.
As to `CCCCCCCCCCCCCCCC(=O)OCC(COC(=O)CCCCCCCCCCCCCCC)OC(=O)C(C)CCCCOC(=O)CCC(C)=CCc1c(O)c2c(c(C)c1OC)COC2=O` (mixture of isomers) [Compound 37], the “Transport of total MPA derivatives in lymph (% of dose)” value in data set [1] (setting [4]) was 12.6 % of dose and 12.6 ± 1.7 % of dose. The “Fold increase (compared with MPA dosed group)” value in data set [1] (setting [5]) is recorded as 75.0 fold.
With `CCCCCCCCCCCCCCCC(=O)OCC(COC(=O)CCCCCCCCCCCCCCC)OC(=O)CC(C)CCOC(=O)CCC(C)=CCc1c(O)c2c(c(C)c1OC)COC2=O` (mixture of isomers) [Compound 38], the “Transport of total MPA derivatives in lymph (% of dose)” value in data set [1] (setting [4]) is 12.1 % of dose and 12.1 ± 1.0 % of dose. Moreover, the “Fold increase (compared with MPA dosed group)” value in data set [1] (setting [5]) came to 72.3 fold.
For the compound `CCCCCCCCCCCCCCCC(=O)OCC(COC(=O)CCCCCCCCCCCCCCC)OC(=O)CC(C)CCCCCCCCCCCCOC(=O)CCC(C)=CCc1c(O)c2c(c(C)c1OC)COC2=O` (mixture of isomers) [Compound 39], the “Transport of total MPA derivatives in lymph (% of dose)” value in data set [1] (setting [4]) was 28.4 % of dose and 28.4 ± 3.2 % of dose. In addition, the “Fold increase (compared with MPA dosed group)” value in data set [1] (setting [5]) is 167.0 fold.
Consider `CC(=O)Oc1ccccc1C(=O)O` [ASP, aspirin, reference compound], for which, in data set [1] (setting [6]), the “Increase fold” value was 1.0 fold and the “Transport of total drug derivatives in lymph (% of dose)” value is reported as 1.3 ± 0.2 % of dose.
Consider `CCCCCCCCCCCCCCCC(=O)OCC(COC(=O)CCCCCCCCCCCCCCC)OC(=O)CCCCCCCCC(=O)Oc1cc(C)cc(C)c1C(C)(C)CC(=O)NS(=O)(=O)c1ccc(-n2nc(C(F)(F)F)cc2-c2ccc(C)cc2)cc1` [Compound 5], for which the “Transport of total drug derivatives in lymph (% of dose)” value in data set [1] (setting [3]) was 15.7 ± 1.3 % of dose.
`CCCCCCCCCCCCCCCC(=O)OCC(COC(=O)CCCCCCCCCCCCCCC)OC(=O)CCCC(=O)O[C@H]1CC[C@H]2[C@@H]3CCC4=CC(=O)CC[C@]4(C)[C@H]3CC[C@]12C` [Compound 10]: in data set [2] (SD female rats, dose-normalized), the “AUC0-24 h fold increase compared with TU group” value was 2.8 fold and 2.9 fold. For the same compound, in data set [2], the Tmax was 1.0 ± 0.0 h and 1.1 ± 0.1 h; the AUC0-24 h was 0.0191 ± 0.0024 µM·h and 0.0196 ± 0.0008 µM·h; the Cmax was 19 nM and 13.7 nM. Further, the “Transport of total TST derivatives in lymph (% of dose)” value in data set [1] (anaesthetised, mesenteric lymph-duct cannulated female SD rats, intraduodenal infusion 0-2 h, cumulative over 8 h) is listed as 14.5 % of dose. In addition, the “Fold increase (compared with control group dosed with TU)” value in data set [1] (lymphatic transport of total TST derivatives, female SD rats, intraduodenal infusion) came to 7.7 fold.
As for `CCCCCCCCCCCCCCCC(=O)OCC(COC(=O)CCCCCCCCCCCCCCC)OC(=O)CCCCC(=O)Oc1cc(C)cc(C)c1C(C)(C)CC(=O)O[C@H]1CC[C@H]2[C@@H]3CCC4=CC(=O)CC[C@]4(C)[C@H]3CC[C@]12C` [Compound 22, 1,3-Bis(palmitoyloxy)propan-2-yl (2-(4-(((8R,9S,10R,13S,14S,17S)-10,13-dimethyl-3-oxo-2,3,6,7,8,9,10,11,12,13-14,15,16,17-tetradecahydro-1H-cyclopenta[a]phenanthren-17-yl)oxy)-2-methyl-4-oxobutan-2-yl)-3,5-dimethylphenyl) adipate], in data set [2], the time to peak (Tmax) was found to be 1.0 ± 0.0 h, the AUC0-24 h was 0.2691 ± 0.0588 µM·h and the Cmax came out at 171 ± 27 nM.
On to `CCCCCCCCCCCCCCCC(=O)OCC(COC(=O)CCCCCCCCCCCCCCC)OC(=O)CCCCCCCCC(=O)Oc1cc(C)cc(C)c1C(C)(C)CC(=O)O[C@H]1CC[C@H]2[C@@H]3CCC4=CC(=O)CC[C@]4(C)[C@H]3CC[C@]12C` [Compound 26], for which, in data set [2], the Tmax is reported as 1.1 ± 0.1 h, the AUC0-24 h was determined as 0.6173 ± 0.1778 µM·h and the Cmax was determined as 487 ± 134 nM.
Take `CCCCCCCCCCCCCCCC(=O)OCC(COC(=O)CCCCCCCCCCCCCCC)OC(=O)CCCCCCCOC(=O)CC/C(C)=C/Cc1c(O)c2c(c(C)c1OC)COC2=O` [Compound 33]: the “Transport of total MPA derivatives in lymph (% of dose)” value in data set [1] (setting [4]) is 10.5 ± 0.7 % of dose. Also, in data set [1] (setting [5]), the “Fold increase (compared with MPA dosed group)” value amounted to 62.8 fold.
Take `CCCCCCCCCCCCCCCC(=O)OCC(COC(=O)CCCCCCCCCCCCCCC)OC(=O)CCCCCCCCCCCCCCOC(=O)CC/C(C)=C/Cc1c(O)c2c(c(C)c1OC)COC2=O` [Compound 34]: the “Transport of total MPA derivatives in lymph (% of dose)” value in data set [1] (setting [4]) was 22.1 % of dose and 22.1 ± 3.5 % of dose; in data set [1] (anaesthetised, mesenteric lymph-duct cannulated male SD rats, intraduodenal infusion 0-2 h, cumulative over 8 h, listed as compound 34), 22.1 % of dose. Besides, in data set [1] (setting [5]), the “Fold increase (compared with MPA dosed group)” value was 132.0 fold.
Take `CCCCCCCCCCCCCCCC(=O)OCC(COC(=O)CCCCCCCCCCCCCCC)OC(=O)CCCCCCCCCCCCCCCCCCCCOC(=O)CC/C(C)=C/Cc1c(O)c2c(c(C)c1OC)COC2=O` [Compound 35]: in data set [1] (setting [4]), the “Transport of total MPA derivatives in lymph (% of dose)” value is 9.7 ± 1.0 % of dose. In data set [1] (setting [5]), the “Fold increase (compared with MPA dosed group)” value turned out to be 58.1 fold.
For `CCCCCCCCCCCCCCCC(=O)OCC(COC(=O)CCCCCCCCCCCCCCC)OC(=O)CCCCSC(=O)CC/C(C)=C/Cc1c(O)c2c(c(C)c1OC)COC2=O` [Compound 40] the same measures were 10.2 ± 3.0 % of dose and 61.1 fold.
Consider `COCCc1ccc(OCC(O)CNC(C)C)cc1` (stereo not shown) [MET, metoprolol, reference compound], for which, in data set [1] (setting [6]), the “Increase fold” value was found to be 1.0 fold and the “Transport of total drug derivatives in lymph (% of dose)” value is on record as 0.02 ± 0.01 % of dose.
In the case of `COc1c(C)c2c(c(O)c1C/C=C(\C)CCC(=O)O)C(=O)OC2` [MPA, mycophenolic acid, reference compound], in data set [1] (setting [6]), the “Fold increase (compared with MPA dosed group)” value is 1.0 fold and the “Transport of total MPA derivatives in lymph (% of dose)” value was 0.17 ± 0.05 % of dose.
As for `CN[C@H]1CC[C@@H](c2ccc(Cl)c(Cl)c2)c2ccccc21` [SER, sertraline, reference compound], in data set [1] (setting [6]), the “Increase fold” value worked out at 1.0 fold and the “Transport of total drug derivatives in lymph (% of dose)” value is 0.05 % of dose.
